Test results from PubChem BioAssay AID1845200 (Molecular Pharmacology Branch, DTP, NCI, 2023).

Test system: ASPS-1 complex tumor spheroids, viability
Assay: Anticancer human tumor ASPS-1 cell line growth inhibition;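 also: spheroids exposed to agents for 7 days after 3 days of growth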;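 as to viability, T/C: 100% = DMSO vehicle treated spheroids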
Details: for IC50: curve of first compound; for viability, T/C: stronger effect = lower value
Procedure, shortened: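 Complex tumor spheroids combined malignant cells with endothelial cells and mesenchymal stem cells. DNA-damaging drugs and DNA repair inhibitors were tested alone and in combination, at half-log dilutions down from clinical Cmax (top 10 microM if Cmax unknown), 0.25% DMSO final.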

[1] = second compound 0.003 µM, first compound 0.0316 µM
[2] = second compound 0.003 µM, first compound 0.1 µM
[3] = second compound 0.003 µM, first compound 0.316 µM
[4] = second compound 0.003 µM, first compound 1 µM
[5] = second compound 0.003 µM, first compound 3.16 µM
[6] = second compound 0.003 µM, first compound 10 µM
[7] = second compound 0.00949 µM, first compound 0.0316 µM
[8] = second compound 0.00949 µM, first compound 0.1 µM
[9] = second compound 0.00949 µM, first compound 0.316 µM
[10] = second compound 0.00949 µM, first compound 1 µM
[11] = second compound 0.00949 µM, first compound 3.16 µM
[12] = second compound 0.00949 µM, first compound 10 µM
[13] = second compound 0.03 µM, first compound 0.0316 µM
[14] = second compound 0.03 µM, first compound 0.1 µM
[15] = second compound 0.03 µM, first compound 0.316 µM
[16] = second compound 0.03 µM, first compound 1 µM
[17] = second compound 0.03 µM, first compound 3.16 µM
[18] = second compound 0.03 µM, first compound 10 µM
[19] = second compound 0.0949 µM, first compound 0.0316 µM
[20] = second compound 0.0949 µM, first compound 0.1 µM
[21] = second compound 0.0949 µM, first compound 0.316 µM
[22] = second compound 0.0949 µM, first compound 1 µM
[23] = second compound 0.0949 µM, first compound 3.16 µM
[24] = second compound 0.0949 µM, first compound 10 µM
[25] = second compound 0.3 µM, first compound 0.0316 µM
[26] = second compound 0.3 µM, first compound 0.1 µM
[27] = second compound 0.3 µM, first compound 0.316 µM
[28] = second compound 0.3 µM, first compound 1 µM
[29] = second compound 0.3 µM, first compound 3.16 µM
[30] = second compound 0.3 µM, first compound 10 µM

`CC1COCCN1c1cc(-c2ccnn2C)c2ccnc(-c3ccn[nH]3)c2n1` (stereo not given) + CC[C@@]1(O)C(=O)OCc2c1cc1n(c2=O)Cc2cc3c(CN(C)C)c(O)ccc3nc2-1 was tested, and the IC50 (second compound 0.003 µM) was 224 nM, the IC50 (second compound 0.00949 µM) was 60.8 nM and the IC50 (second compound 0.03 µM) was < 31.6 nM. The IC50 (second compound 0.0949 µM) was < 31.6 nM, the IC50 (second compound 0.3 µM) was < 31.6 nM and the viability, T/C [1] was 73.9%. For the same compound, the viability, T/C [2] was 59.1%, the viability, T/C [3] was 46.2% and the viability, T/C [4] was 44.5%. For the same compound, the viability, T/C [5] was 47.8%, the viability, T/C [6] was 43.5% and the viability, T/C [7] was 56.9%. The viability, T/C [8] was 48.7%, the viability, T/C [9] was 39.9% and the viability, T/C [10] was 40.1%. It also gave a viability, T/C [11] of 46.8%, a viability, T/C [12] of 42.3% and a viability, T/C [13] of 38.7%. For the same compound, the viability, T/C [14] was 35.1%, the viability, T/C [15] was 35.8% and the viability, T/C [16] was 39.6%. For the same compound, the viability, T/C [17] was 42.1%, the viability, T/C [18] was 42.5% and the viability, T/C [19] was 26.7%. It also gave a viability, T/C [20] of 26.5%, a viability, T/C [21] of 28.7% and a viability, T/C [22] of 34.1%. The viability, T/C [23] was 41.9%, the viability, T/C [24] was 36.4% and the viability, T/C [25] was 23.3%. The viability, T/C [26] was 23.2%, the viability, T/C [27] was 23.5% and the viability, T/C [28] was 33.8%. For the same compound, the viability, T/C [29] was 44.6% and the viability, T/C [30] was 38.6%.
With `COc1cc(C)[nH]c(=O)c1CN1CCc2c(Cl)cc(C(OC)C3COC3)c(Cl)c2C1=O` (stereo not given) + CC[C@@]1(O)C(=O)OCc2c1cc1n(c2=O)Cc2cc3c(CN(C)C)c(O)ccc3nc2-1 the IC50 (second compound 0.003 µM) was > 10000 nM, the IC50 (second compound 0.00949 µM) was > 10000 nM and the IC50 (second compound 0.03 µM) was > 10000 nM. The IC50 (second compound 0.0949 µM) was > 10000 nM, the IC50 (second compound 0.3 µM) was > 10000 nM and the viability, T/C [1] was 107%. For the same compound, the viability, T/C [2] was 111%, the viability, T/C [3] was 99.3% and the viability, T/C [4] was 98.7%. It also gave a viability, T/C [5] of 99.9%, a viability, T/C [6] of 101% and a viability, T/C [7] of 112%. It also gave a viability, T/C [8] of 110%, a viability, T/C [9] of 107% and a viability, T/C [10] of 98.9%. It also gave a viability, T/C [11] of 98.9%, a viability, T/C [12] of 98.8% and a viability, T/C [13] of 84.6%. The viability, T/C [14] was 89.1%, the viability, T/C [15] was 88.8% and the viability, T/C [16] was 87.2%. It also gave a viability, T/C [17] of 91.3%, a viability, T/C [18] of 82.8% and a viability, T/C [19] of 61.8%. For the same compound, the viability, T/C [20] was 61.7%, the viability, T/C [21] was 60.2% and the viability, T/C [22] was 62.7%. For the same compound, the viability, T/C [23] was 58.4%, the viability, T/C [24] was 59.3% and the viability, T/C [25] was 69.7%. The viability, T/C [26] was 64.8%, the viability, T/C [27] was 69.2% and the viability, T/C [28] was 64.9%. For the same compound, the viability, T/C [29] was 64.2% and the viability, T/C [30] was 65.7%.
With `COc1ccc([C@@H](O)c2cc(-c3ncnc4cc(N5CCOCC5)ccc34)c(F)cc2Cl)nn1` + CC[C@@]1(O)C(=O)OCc2c1cc1n(c2=O)Cc2cc3c(CN(C)C)c(O)ccc3nc2-1 the IC50 (second compound 0.003 µM) was 8870 nM, the IC50 (second compound 0.00949 µM) was 6690 nM and the IC50 (second compound 0.03 µM) was 3020 nM. The IC50 (second compound 0.0949 µM) was 330 nM, the IC50 (second compound 0.3 µM) was 214 nM and the viability, T/C [1] was 110%. It also gave a viability, T/C [2] of 106%, a viability, T/C [3] of 101% and a viability, T/C [4] of 98.1%. The viability, T/C [5] was 80.3%, the viability, T/C [6] was 46.1% and the viability, T/C [7] was 104%. For the same compound, the viability, T/C [8] was 104%, the viability, T/C [9] was 101% and the viability, T/C [10] was 90.2%. It also gave a viability, T/C [11] of 66.6%, a viability, T/C [12] of 41.1% and a viability, T/C [13] of 82%. For the same compound, the viability, T/C [14] was 87.9%, the viability, T/C [15] was 82.8% and the viability, T/C [16] was 73.8%. For the same compound, the viability, T/C [17] was 49.1%, the viability, T/C [18] was 31.9% and the viability, T/C [19] was 56.1%. The viability, T/C [20] was 54.7%, the viability, T/C [21] was 50.6% and the viability, T/C [22] was 31.4%. It also gave a viability, T/C [23] of 22.7%, a viability, T/C [24] of 26.1% and a viability, T/C [25] of 62.5%. The viability, T/C [26] was 58.4%, the viability, T/C [27] was 45.7% and the viability, T/C [28] was 32.4%. For the same compound, the viability, T/C [29] was 23.9% and the viability, T/C [30] was 16.4%.
